Test results published in patent US6673937B2, “Syntheses and methods of use of new antimitotic agents” (The University of Pittsburgh, priority 2000, dated 2004).

What was measured:
Format in all cases: biochemical
VHR = VHR (Homo sapiens, UniProt P51452); assay: In vitro inhibition of VHR; details: 30 μM, data not shown
Cdk1 = biological target: T1, Cdk1 (Homo sapiens, UniProt P06493); assay: Cdk1 kinase activity assay (histone H1 phosphorylation); details: immunoprecipitate from MCF-7 cells, 20 min
T1 construct: Lysates from asynchronous MCF-7 cells were immunoprecipitated with anti Cdk1 antibody coupled to agarose; endogenous in cells; host or cells: MCF-7 human breast cancer cells (immunoprecipitate)
T1 sequence (P06493 whole entry): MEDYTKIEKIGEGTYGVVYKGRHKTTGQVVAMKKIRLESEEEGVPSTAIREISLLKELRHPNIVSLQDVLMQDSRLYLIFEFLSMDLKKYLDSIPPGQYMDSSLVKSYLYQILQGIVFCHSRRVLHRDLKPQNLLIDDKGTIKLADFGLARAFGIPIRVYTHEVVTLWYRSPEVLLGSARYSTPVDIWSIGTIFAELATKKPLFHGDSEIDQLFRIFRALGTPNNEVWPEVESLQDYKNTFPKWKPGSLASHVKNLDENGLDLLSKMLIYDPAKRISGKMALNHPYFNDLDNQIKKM
T1 sequence (P14635 whole entry partner): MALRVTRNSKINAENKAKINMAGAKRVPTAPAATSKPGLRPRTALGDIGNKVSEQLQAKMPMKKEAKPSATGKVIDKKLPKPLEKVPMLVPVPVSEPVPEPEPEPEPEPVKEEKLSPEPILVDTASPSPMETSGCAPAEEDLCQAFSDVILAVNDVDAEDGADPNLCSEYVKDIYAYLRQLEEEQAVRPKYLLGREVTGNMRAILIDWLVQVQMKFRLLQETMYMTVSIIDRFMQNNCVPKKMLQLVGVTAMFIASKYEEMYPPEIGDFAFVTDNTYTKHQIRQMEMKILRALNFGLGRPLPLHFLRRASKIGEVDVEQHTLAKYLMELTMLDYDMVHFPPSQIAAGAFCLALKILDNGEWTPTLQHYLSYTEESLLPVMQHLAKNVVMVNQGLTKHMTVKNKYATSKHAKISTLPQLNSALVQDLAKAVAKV
Method: tsFT210 cells were harvested using the same procedure for cell synchronizing and drug exposure as described above for the G2/M flow cytometric analysis. The protein lysates were analyzed by Western blotting for Cdk1 as described previously (Tamura K, Southwick EC, Kerns J, Rosi K, Carr BI, Wilcox C and Lazo JS (2000) Cdc25 inhibition and cell cycle arrest by a synthetic thioalkyl vitamin K analogue. Cancer Res 60:1317-1325.). The inventors used Cdk1 isolated from human MCF-7 cells to assay for in vitro inhibition of enzyme activity because of available antibodies and convenience. Asynchronous cells grown at 37° C. in 5% CO2 in DMEM containing 10% fetal bovine serum were treated with lysis buffer and harvested as previously described (Vogt A, Wang AS, Johnson CS, Fabisiak JP, Wipf P and Lazo JS (2000) In vivo antitumor activity and induction of insulin-like growth factor-1 resistant apoptosis by SC-ααδ9. J Pharmacol Exptl Therap 292:530-537.). […] Histone H1 was separated from other proteins by SDS-PAGE and analyzed for incorporation of radioactive phosphate with a Molecular Dynamics STORM 860 Phospholmager (Sunnyvale, CA). […]

bovine brain tubulin = assay: GTP-induced tubulin assembly (turbidity); details: 40 μM
Method: Tubulin without microtubule-associated proteins was isolated from fresh bovine brains (Hamel E and Lin CM (1984). Separation of active tubulin and microtubule-associated proteins by ultracentrifugation and isolation of a component causing the formation of microtubule bundles. Biochemistry 23:4173-4184). Inhibition of assembly reactions was carried out as described previously (Verdier-Pinard P, Lai J-Y, Yoo H-D, Yu J, Marquez B, Nagle DG, Nambu M, White JD, Falck JR, Gerwick WH, Day BW and Hamel E (1998) Structure-activity analysis of the interaction of curacin A, the potent colchicine site antimitotic agent, with tubulin and effects of analogs on the growth of MCF-7 breast cancer cells. Mol Pharmacol 53:62-76.).
The inventors examined the ability of SR-7 to alter tubulin polymerization or depolymerization in vitro. FIG. 28, Panel A. Compounds (predissolved in DMSO) were preincubated with tubulin containing monosodium glutamate at 30 ° C. for 15 min. Samples were cooled to 0 ° C. and GTP was added. Samples were placed in a temperature-controlled multi-cuvette holder of a spectrophotometer held at 0 ° C. Baselines were established and temperature was rapidly raised to 30 ° C. Turbidity development in the cuvettes was measured at 350 nm. FIG. 28, Panel B. Compounds were added to the tubulin plus monosodium glutamate mixture at 0 ° C., placed in the spectrophotometer and temperature was raised to 30 ° C. Addition of 0.4 mM GTP to isolated bovine brain tubulin produced robust polymerization that began to plateau approximately 20 min after microtubule assembly commenced (Panel A).

VHR, sequence (P51452 whole entry, species assumed): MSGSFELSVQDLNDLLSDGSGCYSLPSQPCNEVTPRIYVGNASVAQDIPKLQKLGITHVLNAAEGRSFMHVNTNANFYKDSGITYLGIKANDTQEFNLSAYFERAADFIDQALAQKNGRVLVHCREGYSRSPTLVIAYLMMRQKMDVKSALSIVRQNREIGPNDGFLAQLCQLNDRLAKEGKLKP

## O=C1C=CC2(Oc3cccc4cccc(c34)O2)c2cccc(OCc3ccco3)c21 [SR-7, 8-(furan-2-ylmethoxy)-1-oxo-1,4-dihydronaphthalene-4-spiro-2′-naphto [1″,8″-de][1′,3′] dioxin]
VHR
  inhibition of VHR activity: no inhibition
Cdk1
  direct inhibition of Cdk1 kinase activity: not directly inhibited
Bovine brain tubulin
  inhibition of tubulin assembly: only moderate inhibition of tubulin assembly
